Results on three molecules are retold here after patent US20060154860A1, “Manipulating stem-progenitor cell trafficking to injured tissue and/or tumors by altering HIF-1 and/or SDF-1 activity” (priority 2004, published 2006).

“Also recorded” adds a separate entry of the source.

One test has as its system SDF1 promoter. Nature of the test: SDF1 promoter luciferase reporter assay (pGL3b.SDF1.full) in HMEC-1. The format is cell-based, human. The conditions noted are these: 0.1 mM cobalt chloride, 12 hours, HMEC-1 transfected with pGL3b.SDF1.full. From the text: The 1.4 kb 5′ SDF1 promoter region was cloned into the luciferase reporter vector pGL3-Basic (Promega) generating pGL.SDF1.full. 5′ deletion constructs were generated from pGL.SDF1.full using unique internal restriction sites SmaI/SacI, and XhoI. HBS-only contructs (HBS1, HBS2, or both) were generated by PCR and cloned into pGL3-Promoter (Promega). HBS1 was mutated using the mega-primer method (primers listed below) (Kammann et al., “Rapid Insertional Mutagenesis of DNA by Polymerase Chain Reaction (PCR),” Nucleic Acids Res. 17:5404 (1989), which is hereby incorporated by reference in its entirety). All constructs were sequenced to confirm their identity. Reporter plasmids were co-transfected with a constitutively expressed Renilla luciferase construct (pHRL-TK, Promega) into HMECs using the Genejammer reagent (Stratagene). 48 hours after transfection, cells were incubated in hypoxia or normoxia with and without 0.1 mM cobalt chloride (CoCl2) for 12 hours. Luciferase activity was determined using the Dual Luciferase System (Promega) and data were normalized to Renilla luciferase expression from at least four independent experiments. Co-transfection experiments using plasmids for oxygen […] HIF-1α (HIF-1.ΔODD) and the HIF-1α dominant negative (HIF-1.DN) were compared to control transfections using the appropriate empty vector (pcDNA3.1 and pCEP4, respectively) for each construct. […]

Test [1] addresses CXCR4 on human endothelial progenitor cells (EPCs) (human) (UniProt P61073). Nature of the test: cell-based or functional assay.
Chain of UniProt P61073 (P61073 whole entry): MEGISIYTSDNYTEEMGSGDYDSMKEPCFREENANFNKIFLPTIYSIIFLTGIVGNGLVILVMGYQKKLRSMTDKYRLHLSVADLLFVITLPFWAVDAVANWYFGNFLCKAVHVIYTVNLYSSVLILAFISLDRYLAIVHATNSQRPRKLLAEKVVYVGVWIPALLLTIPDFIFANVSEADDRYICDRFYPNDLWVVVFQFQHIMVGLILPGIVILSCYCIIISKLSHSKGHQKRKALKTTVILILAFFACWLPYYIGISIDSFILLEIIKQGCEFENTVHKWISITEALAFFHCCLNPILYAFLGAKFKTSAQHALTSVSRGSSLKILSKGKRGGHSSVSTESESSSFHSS
The test system of the next test is EPCs. Nature of the test: Migration assay (modified transwell) of EPCs. The format is cell-based, human. The conditions noted are these: 6 hour migration period. The method, then: Migration was studied using a modified transwell assay. EPCs (5×10^4) were seeded onto ChemoTx filters (5.7 mm, 8 μm pore, Neuro Probe) in EBM/0.5% FBS. […] Following the 6 hour migration period, nonmigrating cells were completely wiped from the top surface of the membrane. Migrating cells adherent to the undersurface of the filters were quantified using DAPI staining (Vector) with Kodak 1D software. Results are indicative of four independent experiments.

Test [2] relates to CXCR4+ EPCs / HUVEC monolayers. In words: Adhesion assay of DiI-labeled CXCR4+ EPCs to HUVEC monolayers. The format is cell-based, human. The settings on record: monolayers pre-coated for 20 minutes with recombinant SDF-1. The method, then: Confluent HUVEC monolayers were subjected to normoxic or hypoxic culture for 6 hours. Human SDF-1αβ/PBSF (100 ng/ml, Sigma) was added where indicated. DiI-labeled EPCs (5×10^4) in EBM/0.5% FBS were added to each preconditioned monolayer and pre-adhesion fluorescence was measured using a Cytofluor 2320 (Millipore). After 3 hours, nonadherent cells were washed away, and post-adhesion fluorescence was measured. The percentage of adherent
cells was calculated using the following formula: [formula] Results are representative of three independent experiments.
HIF-1α siRNA (Berra et al, “HIF Prolyl-hydroxylase 2 is the Key Oxygen Sensor Setting Low Steady-state Levels of HIF-1α in Normoxia,” Embo. J. 22:4082-4090 (2003), which is hereby incorporated by reference in its entirety) (synthesized by Qiagen) was transfected into HUVECs using RNAiFect (Qiagen) in parallel with Lamin A/C and FITC-labeled control siRNAs according to the manufacturer=3 s protocol. Cells were treated with normoxic or hypoxic conditions starting 24 hours following transfection. Gene expression and adhesion assays were performed at 48 hours.

As to `[Cl][Co][Cl]` [cobalt chloride], in the test on SDF1 promoter, the SDF1-specific luciferase expression entry is given as “four-fold”.

For “neutralizing CXCR4 antibody (Clone 44716, R&D Systems)”, the EPC migration toward hypoxia-conditioned media after preincubating EPCs with neutralizing CXCR4 antibodies (HM+ab) in test [1] stood at 175 cells/hpf.

Turning to “recombinant SDF-1: Recombinant human SDF-1αβ/PBSF (Sigma), chemokine”, the “EPC migration, effect in words” value in the test with EPCs is “EPC migration increased”. Also, the “adhesion of CXCR4+ EPCs to normoxic HUVEC monolayers” value in test [2] is on record as “Increased adhesion; also recorded: adhered more EPCs”.
